Patent publication US8003649B2 (AstraZeneca AB, priority 2007, dated 2011)

The compounds below were run against T1, Androgen Receptor (AR) (Homo sapiens, UniProt P10275, T878A) (assay: LNCaP Androgen Receptor Down-regulation Cell Assay (immunofluorescence end point)). Details: LNCaP prostate carcinoma cells, compound incubation 20-22 hours, 50% reduction of the AR signal.
T1 construct: cell based immuno-fluorescence assay using the LNCaP prostate epithelial cell line; endogenous in cells; host or cells: LNCaP clone FGC (ATCC CRL-1740)
T1 sequence (P10275 1-920 T878A): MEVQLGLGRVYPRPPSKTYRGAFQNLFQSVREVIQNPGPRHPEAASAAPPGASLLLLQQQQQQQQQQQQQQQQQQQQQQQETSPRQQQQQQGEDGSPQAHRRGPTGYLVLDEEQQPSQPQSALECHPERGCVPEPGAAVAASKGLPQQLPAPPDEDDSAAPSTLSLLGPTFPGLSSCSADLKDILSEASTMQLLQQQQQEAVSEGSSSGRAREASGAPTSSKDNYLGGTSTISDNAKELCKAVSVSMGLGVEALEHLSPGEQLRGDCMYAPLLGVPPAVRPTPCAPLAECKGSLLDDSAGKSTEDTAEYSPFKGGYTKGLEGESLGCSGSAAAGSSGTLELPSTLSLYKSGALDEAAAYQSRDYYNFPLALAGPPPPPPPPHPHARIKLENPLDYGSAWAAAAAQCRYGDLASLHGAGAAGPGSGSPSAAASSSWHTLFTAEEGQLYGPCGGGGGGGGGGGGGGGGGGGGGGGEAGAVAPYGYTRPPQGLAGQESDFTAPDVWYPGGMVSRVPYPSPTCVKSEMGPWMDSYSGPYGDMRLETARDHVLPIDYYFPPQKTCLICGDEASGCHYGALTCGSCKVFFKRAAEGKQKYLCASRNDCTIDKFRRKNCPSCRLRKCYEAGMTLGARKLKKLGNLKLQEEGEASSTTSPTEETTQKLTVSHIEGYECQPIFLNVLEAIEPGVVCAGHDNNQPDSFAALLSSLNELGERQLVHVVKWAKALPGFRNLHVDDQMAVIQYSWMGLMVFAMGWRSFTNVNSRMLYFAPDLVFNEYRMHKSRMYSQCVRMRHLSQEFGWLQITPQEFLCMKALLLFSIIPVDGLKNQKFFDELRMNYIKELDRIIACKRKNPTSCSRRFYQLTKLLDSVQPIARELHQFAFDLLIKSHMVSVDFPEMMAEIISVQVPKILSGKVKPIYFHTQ
Format: cell-based
In short: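 AR loss reported as IC50 from curve fits of fluorescence dose-response data, with AR immunostained and read by laser-scanning cytometry. Compound exposure was 20-22 h at 37° C in LNCaP cells grown in 5% charcoal-stripped FBS and plated overnight beforehand.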

SMILES | IC50
CS(=O)(=O)Oc1cccc(CN2CCN(c3ccc4nnc(C(F)(F)F)n4n3)CC2)c1 [Example 151, [3-[[4-[3-(trifluoromethyl)-[1,2,4]triazolo[4,3-b]pyridazin-6-yl]piperazin-1-yl]methyl]phenyl]methanesulfonate] | 3.1 µM

Same assay, conditions: LNCaP prostate carcinoma cells, compound incubation 20-22 hours, 50% reduction of the AR signal; read-out: Androgen Receptor Down-regulation Assay (a) IC50/μM

SMILES | DC50
CC(C)Cc1ccc(CN2CCN(c3ccc4nnc(C(F)(F)F)n4n3)CC2)cc1 [Example 123, 6-[4-[[4-(2-methylpropyl)phenyl]methyl]piperazin-1-yl]-3-(trifluoromethyl)-[1,2,4]triazolo[4,3-b]pyridazine] | 4.1 µM
Cc1ccc(Sc2ccc(CN3CCN(c4ccc5nnc(C(F)(F)F)n5n4)CC3)cn2)cc1 [Example 124, 6-[4-[[6-(4-methylphenyl)sulfanylpyridin-3-yl]methyl]piperazin-1-yl]-3-(trifluoromethyl)-[1,2,4]triazolo[4,3-b]pyridazine] | 1.7 µM
CCN(CC)c1ccc(CN2CCN(c3ccc4nnc(C(F)(F)F)n4n3)CC2)cc1 [Example 128, N,N-diethyl-4-[[4-[3-(trifluoromethyl)-[1,2,4]triazolo[4,3-b]pyridazin-6-yl]piperazin-1-yl]methyl]aniline] | 2.3 µM
FC(F)(F)Oc1ccc(CN2CCN(c3ccc4nnc(C(F)(F)F)n4n3)CC2)cc1 [Example 131, 6-[4-[[4-(trifluoromethoxy)phenyl]methyl]piperazin-1-yl]-3-(trifluoromethyl)-[1,2,4]triazolo[4,3-b]pyridazine] | 4.1 µM
CCS(=O)(=O)c1ccc(CN2CCN(c3ccc4nnc(C(F)(F)F)n4n3)CC2)cc1 [Example 135, 6-[4-[(4-ethylsulfonylphenyl)methyl]piperazin-1-yl]-3-(trifluoromethyl)-[1,2,4]triazolo[4,3-b]pyridazine] | 4.9 µM
C=CCOc1ccc(CN2CCN(c3ccc4nnc(C(F)(F)F)n4n3)CC2)cc1 [Example 139, 6-[4-[(4-prop-2-enoxyphenyl)methyl]piperazin-1-yl]-3-(trifluoromethyl)-[1,2,4]triazolo[4,3-b]pyridazine] | 2 µM
CN(C)CCOc1ccc(CN2CCN(c3ccc4nnc(C(F)(F)F)n4n3)CC2)cc1 [Example 140, N,N-dimethyl-2-[4-[[4-[3-(trifluoromethyl)-[1,2,4]triazolo[4,3-b]pyridazin-6-yl]piperazin-1-yl]methyl]phenoxy]ethanamine] | 7.1 µM
COc1ccc(CN2CCN(c3ccc4nnc(C(F)(F)F)n4n3)CC2)cn1 [Example 142, 6-[4-[(6-methoxypyridin-3-yl)methyl]piperazin-1-yl]-3-(trifluoromethyl)-[1,2,4]triazolo[4,3-b]pyridazine] | 5.1 µM
FC(F)(F)c1nnc2ccc(N3CCN(Cc4ccc(N5CCOCC5)nc4)CC3)nn12 [Example 143, 6-[4-[(6-morpholin-4-ylpyridin-3-yl)methyl]piperazin-1-yl]-3-(trifluoromethyl)-[1,2,4]triazolo[4,3-b]pyridazine] | 8.8 µM
CCOc1ccc(CN2CCN(c3ccc4nnc(C(F)(F)F)n4n3)CC2)cn1 [Example 147, 6-[4-[(6-ethoxypyridin-3-yl)methyl]piperazin-1-yl]-3-(trifluoromethyl)-[1,2,4]triazolo[4,3-b]pyridazine] | 2.5 µM
CC(C)Oc1ccc(CN2CCN(c3ccc4nnc(C(F)(F)F)n4n3)CC2)cn1 [Example 148, 6-[4-[(6-propan-2-yloxypyridin-3-yl)methyl]piperazin-1-yl]-3-(trifluoromethyl)-[1,2,4]triazolo[4,3-b]pyridazine] | 3.4 µM
OCc1cccc(CN2CCN(c3ccc4nnc(C(F)(F)F)n4n3)CC2)c1 [Example 149, [3-[[4-[3-(trifluoromethyl)-[1,2,4]triazolo[4,3-b]pyridazin-6-yl]piperazin-1-yl]methyl]phenyl]methanol] | 7.9 µM
CS(=O)(=O)Nc1cccc(CN2CCN(c3ccc4nnc(C(F)(F)F)n4n3)CC2)c1 [Example 150, N-[3-[[4-[3-(trifluoromethyl)-[1,2,4]triazolo[4,3-b]pyridazin-6-yl]piperazin-1-yl]methyl]phenyl]methanesulfonamide] | 7.6 µM
CS(=O)(=O)Oc1ccc(CN2CCN(c3ccc4nnc(C(F)(F)F)n4n3)CC2)cc1 [Example 152, [4-[[4-[3-(trifluoromethyl)-[1,2,4]triazolo[4,3-b]pyridazin-6-yl]piperazin-1-yl]methyl]phenyl]methanesulfonate] | 6.7 µM
N#CCOc1ccc(CN2CCN(c3ccc4nnc(C(F)(F)F)n4n3)CC2)cc1 [Example 154, 2-[4-[[4-[3-(trifluoromethyl)-[1,2,4]triazolo[4,3-b]pyridazin-6-yl]piperazin-1-yl]methyl]phenoxy]acetonitrile] | 1.6 µM
CCCCOc1cccc(CN2CCN(c3ccc4nnc(C(F)(F)F)n4n3)CC2)c1 [Example 157, 6-[4-[(3-butoxyphenyl)methyl]piperazin-1-yl]-3-(trifluoromethyl)-[1,2,4]triazolo[4,3-b]pyridazine] | 2.4 µM

More lines, now with the values ahead:

DC50 | SMILES
1.9 µM | Fc1ccc(-c2cccc(CN3CCN(c4ccc5nnc(C(F)(F)F)n5n4)CC3)c2)cc1 [Example 125, 6-[4-[[3-(4-fluorophenyl)phenyl]methyl]piperazin-1-yl]-3-(trifluoromethyl)-[1,2,4]triazolo[4,3-b]pyridazine]
2 µM | Fc1ccc(Oc2ccc(CN3CCN(c4ccc5nnc(C(F)(F)F)n5n4)CC3)cc2)cc1 [Example 126, 6-[4-[[4-(4-fluorophenoxy)phenyl]methyl]piperazin-1-yl]-3-(trifluoromethyl)-[1,2,4]triazolo[4,3-b]pyridazine]
1.5 µM | FC(F)(F)c1nnc2ccc(N3CCN(Cc4ccc(Br)cc4)CC3)nn12 [Example 127, 6-[4-[(4-bromophenyl)methyl]piperazin-1-yl]-3-(trifluoromethyl)-[1,2,4]triazolo[4,3-b]pyridazine]
0.99 µM | CSc1ccc(CN2CCN(c3ccc4nnc(C(F)(F)F)n4n3)CC2)cc1 [Example 129, 6-[4-[(4-methylsulfanylphenyl)methyl]piperazin-1-yl]-3-(trifluoromethyl)-[1,2,4]triazolo[4,3-b]pyridazine]
1.8 µM | CC(C)c1ccc(CN2CCN(c3ccc4nnc(C(F)(F)F)n4n3)CC2)cc1 [Example 130, 6-[4-[(4-propan-2-ylphenyl)methyl]piperazin-1-yl]-3-(trifluoromethyl)-[1,2,4]triazolo[4,3-b]pyridazine]
2.6 µM | FC(F)(F)c1nnc2ccc(N3CCN(Cc4ccc(Oc5ccc(Cl)cc5)cc4)CC3)nn12 [Example 132, 6-[4-[[4-(4-chlorophenoxy)phenyl]methyl]piperazin-1-yl]-3-(trifluoromethyl)-[1,2,4]triazolo[4,3-b]pyridazine]
1.8 µM | FC(F)(F)c1nnc2ccc(N3CCN(Cc4ccc(-c5ccccn5)cc4)CC3)nn12 [Example 134, 6-[4-[(4-pyridin-2-ylphenyl)methyl]piperazin-1-yl]-3-(trifluoromethyl)-[1,2,4]triazolo[4,3-b]pyridazine]
1.5 µM | FC(F)(F)c1nnc2ccc(N3CCN(Cc4ccc(Cl)nc4)CC3)nn12 [Example 137, 6-[4-[(6-chloropyridin-3-yl)methyl]piperazin-1-yl]-3-(trifluoromethyl)-[1,2,4]triazolo[4,3-b]pyridazine]
4.9 µM | FC(F)(F)c1nnc2ccc(N3CCN(Cc4ccc(Oc5ccccc5)nc4)CC3)nn12 [Example 144, 6-[4-[(6-phenoxypyridin-3-yl)methyl]piperazin-1-yl]-3-(trifluoromethyl)-[1,2,4]triazolo[4,3-b]pyridazine]
7.9 µM | NC(=O)COc1ccc(CN2CCN(c3ccc4nnc(C(F)(F)F)n4n3)CC2)cc1 [Example 153, 2-[4-[[4-[3-(trifluoromethyl)-[1,2,4]triazolo[4,3-b]pyridazin-6-yl]piperazin-1-yl]methyl]phenoxy]acetamide]
3 µM | CCCc1ccc(CN2CCN(c3ccc4nnc(C(F)(F)F)n4n3)CC2)cc1 [Example 158, 6-[4-[(4-propylphenyl)methyl]piperazin-1-yl]-3-(trifluoromethyl)-[1,2,4]triazolo[4,3-b]pyridazine]
1.4 µM | CCc1ccc(CN2CCN(c3ccc4nnc(C(F)(F)F)n4n3)CC2)cc1 [Example 159, 6-[4-[(4-ethylphenyl)methyl]piperazin-1-yl]-3-(trifluoromethyl)-[1,2,4]triazolo[4,3-b]pyridazine]
